SMILES | melting point
OCC(NCc1ccccc1)C1CC1 (stereo not drawn) | 56 to 58 °C
NC(=O)c1cc(S(=O)(=O)NCC(=O)O)c[nH]1 | 279 to 281 °C
Nc1ccc2[nH]c(CC3CCCCC3)nc2c1 | 267 to 269 °C
CCC(=O)Nc1ccc(S(=O)(=O)Cl)cc1 | 109 to 111 °C
Nc1nnc(-c2cccc3ccccc23)o1 | 184 to 186 °C
NS(=O)(=O)c1ccc(NCCC(=O)O)c([N+](=O)[O-])c1 | 175 to 177 °C
Cc1n[nH]c(C)c1S(=O)(=O)N1CCC(=O)CC1 | 191 to 193 °C
CS(=O)(=O)c1ccc(-c2nnc(N)o2)cc1 | 297 to 299 °C
COC(=O)c1cc(F)c(F)cc1N | 79 to 81 °C
CCOC(=O)c1cnn(C)c1NC(=O)CCl | 90 to 92 °C
O=C(O)Cn1nc(-c2ccccc2)ccc1=O | 237 to 239 °C
CCOC(=O)c1nc(C)oc1N | 123 to 125 °C
O=C(O)C1CCSCC1 | 109 to 111 °C
O=C(O)c1c(F)ccc([N+](=O)[O-])c1F | 92 to 96 °C
Cc1cccc(OCCNC(=O)C(C)Cl)c1 (stereo not drawn) | 57 to 59 °C
CNC(=O)NC(=O)CCl | 155 to 157 °C
Nc1ccc(Cl)cc1C(=O)c1ccc[nH]1 | 149 to 151 °C
CCCn1c(C)c(C(=O)OCC)c2cc(O)ccc21 | 179 to 181 °C
Nc1ccc(SCCCO)cc1 | 62 to 64 °C
N#CCC(=O)N1CCS(=O)(=O)CC1 | 157 to 159 °C
NNC(=O)CC1CC1 | 89 to 91 °C
O=C(O)c1cccc(NC(=O)c2ccco2)c1 | 224 to 226 °C
Nc1cc(C(F)(F)F)ccc1Oc1ccc(Br)cc1 | 19 to 21 °C
O=[N+]([O-])c1cc(S(=O)(=O)C(F)F)ccc1Cl | 71 to 73 °C

SMILES | melting point
CCOC(=O)c1cc(Br)c(OC)c(S(=O)(=O)Cl)c1 | 62 to 64 °C
O=C(O)c1ccnc(C2CC2)n1 | 218 to 220 °C
Cc1nc2c3ccccc3nc(Cl)n2n1 | 140 to 142 °C
O=C(O)c1nc(Cl)cnc1Br | 99 to 101 °C
CC(C)(C)OC(=O)N1C(C(=O)O)CC2CCCCC21 (stereo not drawn) | 133 to 135 °C
COc1cc(N)ccc1NC(C)=O | 121 to 123 °C
CC(C)C(Br)C(=O)NCC1CCCO1 (stereo not drawn) | 53 to 55 °C
COCCCC(N)=NO | 84 to 86 °C
O=c1c2ccccc2nc(O)n1-c1ccccc1 | 217 to 220 °C
COc1ccc(Sc2ccc(N)cc2Cl)cc1 | 104 to 106 °C
O=C(O)CCc1ccc2c(c1)OCCO2 | 64 to 66 °C
Cc1ccc(Cn2nc(C)c(C=O)c2C)cc1 | 65 to 67 °C
Nc1nc2nc(-c3ccccc3)cc(C(F)(F)F)c2s1 | 234 to 236 °C
Nc1nnc(-c2cc3c(s2)CCCC3)o1 | 266 to 268 °C
N#Cc1cnc(-c2ccccc2)nc1 | 189 to 191 °C
O=C(O)CNC(=O)NCc1ccc(F)cc1 | 169 to 171 °C
N#Cc1cc(C(=O)C(Cl)(Cl)Cl)c[nH]1 | 129 to 131 °C
O=C(O)c1ccc(OC2CCC2)cc1Cl | 127 to 129 °C
Cn1nc(C(C)(C)C)cc1NC(=O)CCl | 138 to 140 °C
Cc1ccc(-c2nn(-c3ccccc3)cc2C(=O)O)cc1C | 215 to 217 °C
CC1=NN(c2cccc(Br)c2)C(=O)C1CC(=O)O (stereo not drawn) | 201 to 203 °C
Cc1ccc2c(c1)C(=O)N(CCCC(=O)O)C2=O | 239 to 241 °C
c1n[nH]cc1C1CCNCC1 | 149 to 151 °C

The next lines start with the values.

melting point | SMILES
183 to 185 °C | N#Cc1cccc(S(=O)(=O)n2ccc(N)n2)c1
151 to 153 °C | CCc1ncc(C(=O)O)s1
332 to 334 °C | O=c1[nH]c2cc(F)c(F)cc2[nH]1
164 to 166 °C | NC(=O)c1c(C2CCCCC2)csc1N
172 to 174 °C | CNC(=O)c1cnc(C)s1
179 to 181 °C | O=C(O)c1cc2ccccn2c1
84 to 86 °C | COc1ccc(CC(O)C(=O)O)cc1 (stereo not drawn)
107 to 109 °C | CCN(C(=O)N1CCC(C(=O)O)CC1)C(C)C
85 to 87 °C | CCS(=O)(=O)c1ccc(Cl)cc1N
92 to 94 °C | CC(=O)CC(=O)c1ccc(Br)cc1
159 to 161 °C | CCOC(=O)c1cnn2c1NCCC2
152 to 156 °C | CC(=O)NC(C)c1ccc(C(=O)CCl)cc1 (stereo not drawn)
30 to 32 °C | CCn1nc(C)c(C(C)=O)c1C
141 to 143 °C | Nc1nonc1-c1ccc(Br)cc1
180 to 182 °C | Cn1c(-c2ccccc2)cnc1S
157 to 159 °C | CCN(CC)C(=O)c1ccc(C(=O)O)cc1
125 to 127 °C | CCn1c(N)cc(=O)[nH]c1=O
30 to 32 °C | Clc1ccc(OCCBr)c(Br)c1
109 to 111 °C | OCc1ncn(-c2ccccc2)n1

melting point | SMILES
34 to 36 °C | COC(=O)c1ncon1
132 to 134 °C | CC(N)c1ccc(NC(N)=O)cc1 (stereo not drawn)
111 to 113 °C | C=CC(=O)NCc1cnc(C)s1
125 to 127 °C | c1ccc(COc2cccc3[nH]ncc23)cc1
146 to 148 °C | O=C(CCl)N1CCCc2cc(S(=O)(=O)N3CCCC3)ccc21
152 to 154 °C | CN(C)c1ccc(N2C(=O)C=CC2=O)cc1
93 to 95 °C | COc1ccccc1CN1C(=O)C=CC1=O
144 to 146 °C | O=C(O)CCc1nnc(-c2ccccc2)o1
128 to 130 °C | CNS(=O)(=O)c1ccc(C#N)cc1
275 to 277 °C | O=C(O)c1ccc(NC(=O)c2ccccc2I)cc1
103 to 105 °C | Cc1nnc2ccc(Cl)nn12
58 to 60 °C | O=C(NC1CC=CCC1)C(F)(F)F (stereo not drawn)
130 to 132 °C | NNC(=O)c1cccc2ncccc12
52 to 54 °C | NCCCNC(=O)c1cccc(Br)c1
109 to 111 °C | Cc1nnnn1-c1cc(N)ccc1F
197 to 199 °C | C=CC(=O)NCc1ccc(C(=O)O)cc1
103 to 105 °C | Cc1cc(Br)cc(C)c1N1CCCC1=O
97 to 101 °C | O=S(=O)(c1cccc(Br)c1)N1CCNCC1
191 to 193 °C | Cc1ccc2[nH]c(C(=O)O)c(Cl)c2c1

melting point | SMILES
250 to 252 °C | CS(=O)(=O)Nc1cc(C(=O)O)ccc1F
123 to 125 °C | CNc1ncc2c(n1)-c1ccccc1SC2
164 to 166 °C | O=C(O)c1sc(Cl)nc1Cl
173 to 175 °C | O=C(CCl)NC(=O)NC1CCS(=O)(=O)C1 (stereo not drawn)
171 to 173 °C | COc1ccc(NS(=O)(=O)c2ccc(N)cc2)cc1OC
248 to 250 °C | CC1CCc2c(sc3nc(C(C)Cl)[nH]c(=O)c23)C1 (stereo not drawn)
104 to 106 °C | CC(=O)CC(=O)CCN1C(=O)c2ccccc2C1=O
117 to 119 °C | CS(=O)(=O)Nc1cccc2c1CCCN2
172 to 174 °C | CN1CCC/C1=N/S(=O)(=O)c1ccc(N)cc1
214 to 216 °C | O=C(O)c1cc(Cl)cc(Br)c1O
213 to 215 °C | Nc1ccccc1-c1nc(C2CC2)n[nH]1
228 to 230 °C | CCC(=O)N1CCc2cc(C(=O)O)ccc21
218 to 220 °C | Cc1ccc(-c2nc(C)c(C(=O)O)s2)c(C)c1
68 to 70 °C | CCOC(=O)c1oc2c(Br)cccc2c1C
137 to 139 °C | N#CC(C(=O)N1CCCCC1)c1ccc(C(F)(F)F)cn1 (stereo not drawn)
183 to 185 °C | O=C(O)c1cc(S(=O)(=O)N2CCOCC2)ccc1I
147 to 149 °C | Nc1c[nH]nc1-c1ccccc1
144 to 146 °C | O=S1(=O)CC(S(=O)(=O)Cl)c2ccccc21 (stereo not drawn)

Source: a melting point compilation (Tetko et al.)
